Source: patent US20230124862A1, “BISMUTH THIOL COMPOUNDS AND COMPOSITIONS AND METHODS OF TREATING MICROBIAL CO-INFECTIONS” (Microbion Corporation, priority 2020, published 2023)

Experiment: Particle size distribution of BisEDT samples vs processing conditions
Type: physicochemical
[1] = particle size distribution of BisEDT samples

Question: What does the source list for `C1C[S][Bi]([S]CC[S][Bi]2[S]CC[S]2)[S]1` [Sample 1]?
Answer: D(10) (crystalline BisEDT samples): 0.80 μm; D(50) (crystalline BisEDT samples): 2.4 μm; D(90) (crystalline BisEDT samples): 5.9 μm; D[4, 3] (crystalline BisEDT samples): 2.9 μm; D(10) [1]: 0.80 μm; D(50) [1]: 2.4 μm; D(90) [1]: 5.9 μm; D[4, 3] [1]: 2.9 μm

Question: What does the source list for `C1C[S][Bi]([S]CC[S][Bi]2[S]CC[S]2)[S]1` [Sample 2]?
Answer: D(10) (crystalline BisEDT samples): 0.58 μm; D(50) (crystalline BisEDT samples): 1.7 μm; D(90) (crystalline BisEDT samples): 3.9 μm; D[4, 3] (crystalline BisEDT samples): 2.0 μm; D(10) [1]: 0.58 μm; D(50) [1]: 1.7 μm; D(90) [1]: 3.9 μm; D[4, 3] [1]: 2.0 μm

Question: With `C1C[S][Bi]([S]CC[S][Bi]2[S]CC[S]2)[S]1` [Sample 3] as the compound, how does the “D(10)” value (crystalline BisEDT samples) read?
Answer: The value was 0.59 μm.

Question: And the “D(50)” value (crystalline BisEDT samples)?
Answer: The value was 1.9 μm.

Question: And the “D(90)” value (crystalline BisEDT samples)?
Answer: Its value is 4.5 μm.

Question: What about the “D[4, 3]” value (crystalline BisEDT samples) of the same compound?
Answer: The value was 2.3 μm.

Question: What about the “D(10)” value [1] of the same compound?
Answer: Its value is 0.59 μm.

Question: And the “D(50)” value [1]?
Answer: Its value is 1.9 μm.

Question: What about the “D(90)” value [1] of the same compound?
Answer: The value was 4.5 μm.

Question: And the “D[4, 3]” value [1]?
Answer: Its value is 2.3 μm.

Question: What does the source list for `C1C[S][Bi]([S]CC[S][Bi]2[S]CC[S]2)[S]1` [Sample 4]?
Answer: D(10) (crystalline BisEDT samples): 0.44 μm; D(50) (crystalline BisEDT samples): 1.48 μm; D(90) (crystalline BisEDT samples): 3.1 μm; D[4, 3] (crystalline BisEDT samples): 1.7 μm; D(10) [1]: 0.44 μm; D(50) [1]: 1.48 μm; D(90) [1]: 3.1 μm; D[4, 3] [1]: 1.7 μm

Question: With `C1C[S][Bi]([S]CC[S][Bi]2[S]CC[S]2)[S]1` [Sample 5] as the compound, how does the “D(10)” value (crystalline BisEDT samples) read?
Answer: The value was 0.33 μm.

Question: And the “D(50)” value (crystalline BisEDT samples)?
Answer: Its value is 0.72 μm.

Question: And the “D(90)” value (crystalline BisEDT samples)?
Answer: Its value is 1.6 μm.

Question: And the “D[4, 3]” value (crystalline BisEDT samples)?
Answer: Its value is 0.86 μm.

Question: What about the “D(10)” value [1] of the same compound?
Answer: The value was 0.33 μm.

Question: What about the “D(50)” value [1] of the same compound?
Answer: Its value is 0.72 μm.

Question: What about the “D(90)” value [1] of the same compound?
Answer: Its value is 1.6 μm.

Question: What about the “D[4, 3]” value [1] of the same compound?
Answer: Its value is 0.86 μm.

Question: For `C1C[S][Bi]([S]CC[S][Bi]2[S]CC[S]2)[S]1` [Sample 6], which “D(10)” value (crystalline BisEDT samples) is on record?
Answer: The value was 0.34 μm.

Question: And the “D(50)” value (crystalline BisEDT samples)?
Answer: Its value is 0.87 μm.

Question: What about the “D(90)” value (crystalline BisEDT samples) of the same compound?
Answer: The value was 1.8 μm.

Question: What about the “D[4, 3]” value (crystalline BisEDT samples) of the same compound?
Answer: Its value is 0.98 μm.

Question: What about the “D(10)” value [1] of the same compound?
Answer: The value was 0.34 μm.

Question: What about the “D(50)” value [1] of the same compound?
Answer: Its value is 0.87 μm.

Question: What about the “D(90)” value [1] of the same compound?
Answer: Its value is 1.8 μm.

Question: And the “D[4, 3]” value [1]?
Answer: The value was 0.98 μm.

Question: What does the source list for `C1C[S][Bi]([S]CC[S][Bi]2[S]CC[S]2)[S]1` [Sample 7]?
Answer: D(10) (crystalline BisEDT samples): 0.39 μm; D(50) (crystalline BisEDT samples): 1.3 μm; D(90) (crystalline BisEDT samples): 1.6 μm; D[4, 3] (crystalline BisEDT samples): 1.4 μm; D(10) [1]: 0.39 μm; D(50) [1]: 1.3 μm; D(90) [1]: 1.6 μm; D[4, 3] [1]: 1.4 μm

Question: What does the source list for `C1C[S][Bi]([S]CC[S][Bi]2[S]CC[S]2)[S]1` [Sample 8]?
Answer: D(10) (crystalline BisEDT samples): 0.36 μm; D(50) (crystalline BisEDT samples): 1.0 μm; D(90) (crystalline BisEDT samples): 1.8 μm; D[4, 3] (crystalline BisEDT samples): 1.0 μm; D(10) [1]: 0.36 μm; D(50) [1]: 1.0 μm; D(90) [1]: 1.8 μm; D[4, 3] [1]: 1.0 μm

Question: What does the source list for `C1C[S][Bi]([S]CC[S][Bi]2[S]CC[S]2)[S]1` [Sample 9]?
Answer: D(10) (crystalline BisEDT samples): 0.67 μm; D(50) (crystalline BisEDT samples): 1.0 μm; D(90) (crystalline BisEDT samples): 1.9 μm; D[4, 3] (crystalline BisEDT samples): 1.1 μm; D(10) [1]: 0.67 μm; D(50) [1]: 1.0 μm; D(90) [1]: 1.9 μm; D[4, 3] [1]: 1.1 μm

Question: With `C1C[S][Bi]([S]CC[S][Bi]2[S]CC[S]2)[S]1` [Sample 10] as the compound, how does the “D(10)” value (crystalline BisEDT samples) read?
Answer: Its value is 0.36 μm.

Question: What about the “D(50)” value (crystalline BisEDT samples) of the same compound?
Answer: Its value is 0.88 μm.

Question: And the “D(90)” value (crystalline BisEDT samples)?
Answer: Its value is 1.7 μm.

Question: And the “D[4, 3]” value (crystalline BisEDT samples)?
Answer: The value was 0.97 μm.

Question: What about the “D(10)” value [1] of the same compound?
Answer: The value was 0.36 μm.

Question: And the “D(50)” value [1]?
Answer: Its value is 0.88 μm.

Question: And the “D(90)” value [1]?
Answer: The value was 1.7 μm.

Question: And the “D[4, 3]” value [1]?
Answer: Its value is 0.97 μm.

Question: With `C1C[S][Bi]([S]CC[S][Bi]2[S]CC[S]2)[S]1` [Sample 11] as the compound, how does the “D(10)” value (crystalline BisEDT samples) read?
Answer: Its value is 0.38 μm.

Question: What about the “D(50)” value (crystalline BisEDT samples) of the same compound?
Answer: The value was 1.2 μm.

Question: What about the “D(90)” value (crystalline BisEDT samples) of the same compound?
Answer: The value was 2.4 μm.

Question: What about the “D[4, 3]” value (crystalline BisEDT samples) of the same compound?
Answer: Its value is 1.4 μm.

Question: And the “D(10)” value [1]?
Answer: Its value is 0.38 μm.

Question: And the “D(50)” value [1]?
Answer: The value was 1.2 μm.

Question: And the “D(90)” value [1]?
Answer: Its value is 2.4 μm.

Question: What about the “D[4, 3]” value [1] of the same compound?
Answer: The value was 1.4 μm.

Question: Which results are given for `C1C[S][Bi]([S]CC[S][Bi]2[S]CC[S]2)[S]1` [Sample 12]?
Answer: D(10) (crystalline BisEDT samples): 0.37 μm; D(50) (crystalline BisEDT samples): 1.2 μm; D(90) (crystalline BisEDT samples): 2.4 μm; D[4, 3] (crystalline BisEDT samples): 1.3 μm; D(10) [1]: 0.37 μm; D(50) [1]: 1.2 μm; D(90) [1]: 2.4 μm; D[4, 3] [1]: 1.3 μm
